Assay results as given in patent publication US8785483B2, “Methods for treating COPD” (The Board of Regents of the University of Texas System, priority 2010, dated 2014).

Columns and labels:
[1] = test system: SAEC; test: IL-13-induced ROS levels (H2DCF-DA fluorescence); assay type: cell-based, human; conditions: fidarestat 10 μM overnight, IL-13 25 ng/ml 1 h
Method: FIGS. 3A-3B. Inhibition of AR prevents IL-13-induced reactive oxygen species (ROS) production in SAEC. (A) Approximately 5×10^4 cells were seeded on 2-chambered slides and starved in serum-free basal medium without or with fidarestat overnight. The cells were washed with 1×HBSS and incubated with 10 μM H2DCF-DA at 37° C. for 30 min, washed again and treated with IL-13 (25 ng/ml) for 1 h. The cells were washed with cold 1×HBSS twice and mounted using floursave mounting medium with DAPI. Photomicrographs were acquired using a fluorescence microscope (Nikon). A representative image is shown (n=4); Magnification 400×. (B) Approximately 10,000 SAEC were plated per well in a 96-well plate and serum-starved for 24 h without or with fidarestat. […] At the end of the treatment, cells were washed twice with HBSS and fluorescence was determined at 485 nm excitation and 538 nm emission wavelengths. Relative ROS production is expressed as mean fluorescence intensity (MFI) (arbitrary units). […] The cells on the culture slide were mounted using floursave mounting medium with DAPI after which photomicrographs were acquired using a fluorescence microscope (Nikon). Fluorescence was determined using 485 nm excitation and 538 nm emission wavelengths for cells in 96-well plate and relative ROS production is expressed as mean fluorescence intensity (MFI) (arbitrary units).

[2] = test system: Muc5AC; test: Western blot of Muc5AC in IL-13-treated SAEC monolayer; assay type: cell-based, human; conditions: IL-13 48 h, immunoblotting
Method: FIGS. 6A-6B. AR inhibition prevents IL-13-induced expression of Mucin and transcription factor SPDEF in airway epithelial cell monolayer. (A) The airway epithelial cell monolayer at ALI was serum starved without or with fidarestat and incubated with IL-13 for 18 h. Total RNA was isolated and subsequently RT-PCR was performed to assess the expression of Muc5AC and SPDEF. The bar diagrams show densitometric analysis of the corresponding blots (n=4). *p<0.001 vs Control; **p<0.001 vs IL-13; (B) The monolayer of ciliated airway cells at ALI was treated with AR inhibitor for 24 h and subsequently incubated with IL-13 for 24 or 48 h. At the end of incubation, cell lysate was prepared and subjected to western blotting using antibodies against Muc5AC, Muc5B, and SPDEF. The membranes were stripped and re-probed with antibodies against GAPDH to show the equal loading of protein. A representative blot is shown (n=4). *p<0.0001 vs Control; **p<0.001 vs IL-13. […] Protein levels were determined using Bradford reagent (Biorad, Hercules, Calif.). […] The blots were then washed, exposed to HRP-conjugated secondary antibodies (1:5,000 dilution) for 1 h, and the antigen-antibody complex was detected by enhanced chemiluminescence (Amersham Pharmacia Biotech, Piscataway, N.J., USA). […]

Compound: NC(=O)[C@@H]1C[C@]2(NC(=O)NC2=O)c2cc(F)ccc2O1 [fidarestat, (2S,4S)-2-aminoformyl-6-fluoro-spiro[chroman-4,4′-imidazolidine]-2′,5′-dione]
- prevention of IL-13-induced increase in ROS levels [1]: 80%
- prevention of IL-13-induced increase in Muc5AC protein [2]: ~75%
